pEC50: −log10 of the molar value.
target: T1, FXR (Homo sapiens, UniProt Q96RI1); experiment: FXR Transactivation Assay (GAL4 luciferase reporter, pBIND-FXR in HEK293T); type: cell-based; settings: HEK293T cells
T1 construct: expressed in transfected cells; host or cells: HEK293T
T1 sequence (Q96RI1 1-486): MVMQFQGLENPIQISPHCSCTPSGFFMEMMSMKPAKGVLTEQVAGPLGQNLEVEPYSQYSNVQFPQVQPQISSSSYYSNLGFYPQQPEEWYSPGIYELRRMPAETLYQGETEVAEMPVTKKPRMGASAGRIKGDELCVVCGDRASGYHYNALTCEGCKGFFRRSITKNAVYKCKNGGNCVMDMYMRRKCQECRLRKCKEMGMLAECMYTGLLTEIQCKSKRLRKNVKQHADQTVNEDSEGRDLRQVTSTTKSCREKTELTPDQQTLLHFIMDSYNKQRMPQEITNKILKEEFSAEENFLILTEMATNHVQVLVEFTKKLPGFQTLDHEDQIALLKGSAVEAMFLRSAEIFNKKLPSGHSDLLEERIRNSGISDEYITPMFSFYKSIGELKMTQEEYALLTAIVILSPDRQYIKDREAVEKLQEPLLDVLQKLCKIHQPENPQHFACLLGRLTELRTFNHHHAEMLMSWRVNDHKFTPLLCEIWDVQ
Protocol: FXR Transactivation Assay
pGL4.35 [luc2P/9XGAL4 UAS/Hygro]
Steady-Glo™ Luciferase Assay System
GW4064 as a positive control
• 1. Hek293T cells were plated at 1.1*10^6/ml into a 100 mm dish. • 2. […] Cells were incubated at 37° C. under 5% CO2 atmosphere. • 3. All of compounds were 3-fold serial diluted from 10 mM stock for 10 doses in DMSO. • 4. Transfer compound dilutions into 384 well assay plates using liquid workstation. • 5. Seed 25 ul HEK293T cells into 384 well assay plate (prepared step 4) at 0.6*10^5/ml. Cells were incubated at 37° C. under 5% CO2 atmosphere overnight. • 6. Add 25 ul steady-Glo™ Luciferase Assay Reagent into each well of 384-well assay plate. • 7. […] Calculate EC50 by fitting % Activity values and log of compound concentrations to nonlinear regression (dose response−variable slope) with Graphpad 5.0. FXR Coactivator Assay Reagents: LanthaScreen™ TR-FRET Farnesoid X Receptor Coactivator Assay GW4064 as a positive control Process: • 1. All of compounds were 3-fold serial diluted from 10 mM stock for 10 doses in DMSO. • 2. Dilute each 100× agonist serial dilution to 2× using Complete Coregulator buffer G. • 3. Transfer 10 μl of each of the 2× agonist serial dilutions to 384 well assay plates. • 4. Add 5 μl of 4×FXR-LBD to 384 well assay plates. • 5. […] Incubate at room temperature protected from light. • 7. […] Calculate EC50 by fitting % Activity values and log of compound concentrations to nonlinear regression (dose response−variable slope) with Graphpad 5.0.

Row | pEC50 | Molecule
1 | 5.30 to 6.40 | COc1cc(C#N)cc2sc(N3CCN(Cc4c(-c5c(Cl)cccc5Cl)noc4C(C)C)CC3)nc12 [IX-01, 2-(4-((3-(2,6-Dichlorophenyl)-5-isopropylisoxazol-4-yl)methyl)piperazin-1-yl)-4-methoxybenzo[d]thiazole-6-carbonitrile]
2 | 5.30 to 6.40 | COc1cc(-c2nnn[nH]2)cc2sc(N3CCN(Cc4c(-c5c(Cl)cccc5Cl)noc4C(C)C)CC3)nc12 [IX-02, 3-(2,6-Dichlorophenyl)-5-isopropyl-4-((4-(4-methoxy-6-(1H-tetrazol-5-yl)benzo[d]thiazol-2-yl)piperazin-1-yl)methyl)isoxazole]
3 | 7.00 to 8.00 | C[C@@H]1CN(Cc2c(-c3c(Cl)cccc3Cl)noc2C2CC2)CCN1c1nc2c(OC(F)(F)F)cc(C(=O)O)cc2s1 [VII-04, 2-[(2R)-4-[[5-Cyclopropyl-3-(2,6-dichlorophenyl)-1,2-oxazol-4-yl]methyl]-2-methylpiperazin-1-yl]-4-(trifluoromethoxy)-1,3-benzothiazole-6-carboxylic acid]

More lines, now with the values behind:

Row | Molecule | pEC50
4 | 2-(4-[[3-(2,6-Dichlorophenyl)-5-(propan-2-yl)-1,2-oxazol-4-yl]methyl]piperazin-1-yl)-1-benzofuran-5-carboxylic acid [Compound X-01] | 5.30 to 6.40
5 | COc1cc(C(=O)O)cc2sc(N3CCN(Cc4c(-c5c(Cl)cccc5Cl)noc4C(C)C)C(C(C)C)C3)nc12 (racemic) [II-29] | 5.30 to 6.40
6 | COc1cc(C(=O)O)cc2sc(N3CCN(Cc4c(-c5c(Cl)cccc5Cl)noc4C(C)C)C4CCCCC43)nc12 (racemic) [II-39] | 6.40 to 7.00
7 | COc1cc(C(=O)O)cc2sc(N3CCN(Cc4c(-c5c(Cl)cccc5Cl)noc4C(C)C)CC3CO)nc12 (stereo not drawn) [II-07, 2-(4-[[3-(2,6-Dichlorophenyl)-5-(propan-2-yl)-1,2-oxazol-4-yl]methyl]-2-(hydroxymethyl)piperazin-1-yl)-4-methoxy-1,3-benzothiazole-6-carboxylic acid] | 5.30 to 6.40
8 | COc1cc(C(=O)O)cc2sc(N3CCN(Cc4c(C(C)C)cnn4-c4c(Cl)cccc4Cl)CC3C)nc12 (stereo not drawn) [II-14] | 5.30 to 6.40
9 | COc1cc(C(=O)O)cc2sc(N3CCN(Cc4c(C(C)C)cnn4-c4c(Cl)cccc4Cl)CC3C)nc12 (stereo not drawn) [II-15] | 7.00 to 8.00
10 | COc1cc(C(=O)O)cc2sc(N3CCN(Cc4c(-c5c(Cl)cccc5Cl)noc4C(C)C)CC34CC4)nc12 [II-17] | 5.30 to 6.40
11 | CCC1CN(c2nc3c(OC)cc(C(=O)O)cc3s2)CCN1Cc1c(-c2c(Cl)cccc2Cl)noc1C1CC1 (stereo not drawn) [II-21] | 6.40 to 7.00
12 | COc1cc(C(=O)O)cc2sc(N3CCN(Cc4c(-c5c(Cl)cccc5Cl)noc4C4CC4)C(C)(C)C3)nc12 [II-23] | 5.30 to 6.40
13 | COc1cc(C(=O)O)cc2sc(N3CCN(Cc4c(-c5c(Cl)cccc5Cl)noc4C4CC4)C(C)C3)nc12 (stereo not drawn) [II-25] | 6.40 to 7.00
14 | COc1cc(C(=O)O)cc2sc(N3C4CCC3CN(Cc3c(-c5c(Cl)cccc5Cl)noc3C3CC3)C4)nc12 [II-36] | 7.00 to 8.00
15 | COc1cc(C(=O)O)cc2sc(N3CCC(Cc4c(C(C)C)cnn4-c4c(Cl)cccc4Cl)CC3)nc12 [II-44] | 5.30 to 6.40
16 | COc1cc(C(=O)O)cc2sc(N3CCC(Cc4c(-c5c(Cl)cccc5Cl)noc4C(C)C)C[C@H]3C)nc12 (stereo partly drawn) [II-45, 2-((2R)-4-((3-(2,6-Dichlorophenyl)-5-isopropylisoxazol-4-yl)methyl)-2-methylpiperidin-1-yl)-4-methoxybenzo[d]thiazole-6-carboxylic acid] | 7.00 to 8.00
17 | COc1cc(C(=O)O)cc2sc(N3CCC(Cc4c(-c5c(Cl)cncc5Cl)noc4C4CC4)CC3)nc12 [II-49] | 5.30 to 6.40
18 | COc1cc(C(=O)O)cc2sc(N3CCC(Cc4c(-c5ccccc5OC(F)(F)F)noc4C4CC4)CC3)nc12 [II-50] | 7.00 to 8.00
19 | CC(C)c1onc(-c2c(Cl)cccc2Cl)c1CC1CCN(c2nc3ccc(C(=O)O)cc3s2)CC1 [III-08] | 5.30 to 6.40
20 | Cc1cc(C(=O)O)cc2sc(N3CCC(Cc4c(C(C)C)cnn4-c4c(Cl)cccc4Cl)CC3)nc12 [IV-10] | 6.40 to 7.00
21 | CC(C)c1onc(-c2c(Cl)cccc2Cl)c1CC1CCN(c2nc3c(F)cc(C(=O)O)cc3s2)CC1 [VI-11] | 5.30 to 6.40

From patent publication US10919903B2, “Nitrogen-containing heterocyclic compounds as FXR modulators” (Hepagene Therapeutics (HK) Limited, priority 2016, dated 2021)
